Key:
[1] = biological target: Menin/MLL-4-43 peptide interaction (Homo sapiens (Human), UniProt O00255); assay: Menin-MLL interaction inhibitory activity assay (fluorescence polarization competition); assay type: binding; conditions: FITC-MLL4-43-peptide, Menin recombinant protein
Method: Test Example 1: Menin-MLL Interaction Inhibitory Activity Assay
The inhibition of Menin/MLL-4-43 peptide interaction by small molecule inhibitors was quantitatively detected by fluorescence polarization competition assay. The experiment was performed in a 384-well plate (Corning, Cat #3575) using a reaction buffer consisting of 50 mM Tris, pH 7.5, 50 mM NaCl, and 1 mM DTT. A 40 μL reaction system included 10 μL of 8 nM Menin recombinant protein and 10 μL of the test compound at different concentrations. The compound was pre-incubated with Menin protein for 15 min, and then 20 μL of 10 nM FITC-MLL4-43-peptide was added. After incubation on a shaker at 25° C. for 60 min, the fluorescence polarization signal (FP 485 520 520) was read using BMG PHERAStar detection. The experimental data was analyzed and processed by GraphPad Prism 6 software to obtain the IC50 value. The control compound 1 was prepared by referring to the method of Example 64 in WO2017214367.

OCI-AML3 = assay: Cell proliferation inhibition (CellTiter-Glo), OCI-AML3 (NPM1 mutation); assay type: cell-based; conditions: OCI-AML3 cells
Method: (§1) Test Example 2: Test of the Inhibitory Ability of Menin-MLL Interaction Inhibitors on Cell Proliferation
(§2) The inhibitory ability of the compounds of the present disclosure on the proliferation of tumor cell lines (including cell lines containing MLL fusion protein such as MV4-11, MOLM-13, THP-1 and NOMO-1, control cell lines without MLL fusion protein such as HL-60, K562 and MOLM-16, and cell lines containing NPM1 mutation such as OCI-AML3) was evaluated by using the cell viability analysis method. The cells were plated in 96-well plates at a certain concentration (e.g., 5,000-20,000 cells/well), and then an equal volume of culture medium containing 2 times the final concentration of the test compound (the final concentration ranging 10 from 1 nM to 10 μM) was added. The plates were placed in an incubator and cultured at 37° C. and 5% CO2 for 72-168 h. Before the test, an equal volume of CellTiter-Glo® Luminescent reagent was added, and the plate was incubated at room temperature for 10 min before detection using an ELISA reader (BMG LABTECH). The data were analyzed using GraphPad Prism software to obtain the IC50 value and compound fitting curve. The control compound 1 was prepared by referring to the method of Example 64 in WO2017214367.

MOLM-13 = assay: Cell proliferation inhibition (CellTiter-Glo), MOLM-13; assay type: cell-based; conditions: MOLM-13 cells
Method: as §1, §2

MV4-11 = assay: Cell proliferation inhibition (CellTiter-Glo), MV4-11; assay type: cell-based; conditions: MV4-11 cells
Method: as §1, §2

Chain of Menin/MLL-4-43 peptide interaction (O00255 whole entry, species assumed): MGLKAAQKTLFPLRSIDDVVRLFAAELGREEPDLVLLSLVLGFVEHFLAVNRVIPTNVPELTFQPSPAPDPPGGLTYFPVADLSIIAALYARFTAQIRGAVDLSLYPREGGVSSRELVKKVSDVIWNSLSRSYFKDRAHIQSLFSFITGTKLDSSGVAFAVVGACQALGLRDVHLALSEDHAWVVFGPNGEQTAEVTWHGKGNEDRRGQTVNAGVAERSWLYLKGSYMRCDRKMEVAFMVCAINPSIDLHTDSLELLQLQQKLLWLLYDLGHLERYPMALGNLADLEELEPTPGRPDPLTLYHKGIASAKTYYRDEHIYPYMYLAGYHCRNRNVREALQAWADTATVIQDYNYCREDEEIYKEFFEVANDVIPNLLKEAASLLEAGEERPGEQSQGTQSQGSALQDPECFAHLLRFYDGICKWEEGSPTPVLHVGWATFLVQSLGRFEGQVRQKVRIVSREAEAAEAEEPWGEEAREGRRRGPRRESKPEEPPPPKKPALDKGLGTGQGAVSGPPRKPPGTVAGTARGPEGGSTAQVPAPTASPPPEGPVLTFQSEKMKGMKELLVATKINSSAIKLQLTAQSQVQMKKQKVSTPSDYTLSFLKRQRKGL

| SMILES | IC50 [1] | GI50 (OCI-AML3; Homo sapiens, OCI-AML-3, 168 h) | GI50 (MOLM-13; Homo sapiens, MOLM-13, 168 h) | GI50 (MV4-11; 72 h) | GI50 (OCI-AML3; 168 h) | GI50 (MOLM-13; 168 h) | GI50 (MV4-11; Homo sapiens, MV4-11, 72 h) |
| --- | --- | --- | --- | --- | --- | --- | --- |
| CCN(C(=O)c1cc(F)ccc1Oc1cncnc1N1CC2(CCN(CC3CC4CCC3CC43CCC(=O)N3)CC2)C1)C(C)C (single isomer, unassigned) [Example 3-1] | 29 nM | 66.5 nM | 47.4 nM | 324 nM | – | – | – |
| CCN(C(=O)c1cc(F)ccc1Oc1nncnc1N1CC2(CCN(C[C@H]3CC[C@]4(CC3)CC(C)C(=O)N4)CC2)C1)C(C)C (single isomer, unassigned) [Example 40-1] | 14.8 nM | 199 nM | 122 nM | 41.2 nM | – | – | – |
| [2H]C([2H])([2H])C1C[C@]2(CC[C@@H](CN3CCC4(CC3)CN(c3ncnnc3Oc3ccc(F)cc3C(=O)N(C(C)C)C(C)C)C4)CC2)NC1=O (single isomer, unassigned) [Example 43-2] | 48.7 nM | – | – | 90 nM | 80.6 nM | 137 nM | – |
| CC(C)N(C(=O)c1cc(F)ccc1Oc1nncnc1N1CC2(CCN(CC3CCC4(CC3)CC3(CC3)C(=O)N4)CC2)C1)C(C)C (single isomer, unassigned) [Example 44-1] | 48.8 nM | – | – | – | 60.5 nM | 111 nM | 16.7 nM |
| CC(C)N(C(=O)c1cc(F)ccc1Oc1nncnc1N1CC2(CCN(CC3CCC4(CC3)CC3(CC3)C(=O)N4)CC2)C1)C(C)C (single isomer, unassigned) [Example 44-2] | 7.9 nM | – | – | 9.7 nM | 26.4 nM | 30.4 nM | – |
| CCN(C(=O)c1cc(F)ccc1Oc1cncnc1N1CC2(CCN(CC3CC4CCC3CC43COC(=O)N3)CC2)C1)C(C)C (single isomer, unassigned) [Example 50-1b] | 21.8 nM | – | 88.9 nM | – | 61.7 nM | – | 26.4 nM |
| CCN(C(=O)c1cc(F)ccc1Oc1cncnc1N1CC2(CCN(CC3CC4CCC3CC43COC(=O)N3)CC2)C1)C(C)C (single isomer, unassigned) [Example 50-2a] | 21.1 nM | – | – | 20.5 nM | 56.4 nM | 125 nM | – |
| CCN(C(=O)c1cc(F)ccc1Oc1cncnc1N1CC2(CCN(CC3CC4CCC3CC43COC(=O)N3)CC2)C1)C(C)C (single isomer, unassigned) [Example 50-2b] | 61.1 nM | – | – | 26.4 nM | 119 nM | 93.3 nM | – |
| CC(C)N(C(=O)c1cc(F)ccc1Oc1cncnc1N1CC2(CCN(CC3CC4CCC3CC43COC(=O)N3)CC2)C1)C(C)C (single isomer, unassigned) [Example 51-1] | 35.3 nM | 68.5 nM | 101 nM | – | – | – | 21.1 nM |
| CC(C)N(C(=O)c1cc(F)ccc1Oc1cncnc1N1CC2(CCN(CC3CC4CCC3CC43COC(=O)N3)CC2)C1)C(C)C (single isomer, unassigned) [Example 51-2] | 47.6 nM | – | – | 18.8 nM | 35.3 nM | 93.3 nM | – |
| CC(C)N(C(=O)c1cc(F)ccc1Oc1nncnc1N1CC2(CCN(CC3CC4CCC3CC43COC(=O)N3)CC2)C1)C(C)C (single isomer, unassigned) [Example 52-1b] | 38.7 nM | 40 nM | – | 11.9 nM | – | – | – |
| CC(C)N(C(=O)c1cc(F)ccc1Oc1nncnc1N1CC2(CCN(CC3CC4CCC3CC43COC(=O)N3)CC2)C1)C(C)C (single isomer, unassigned) [Example 52-2a] | 81.9 nM | – | – | 43.6 nM | 47.9 nM | – | – |
| CC(C)N(C(=O)c1cc(F)ccc1Oc1nncnc1N1CC2(CCN(C[C@H]3CC[C@]4(CC3)CC(C(C)(C)O)C(=O)N4)CC2)C1)C(C)C (single isomer, unassigned) [Example 59-1a] | 7.8 nM | 18.5 nM | 36.2 nM | – | – | – | 9.6 nM |
| CCN(C(=O)c1cc(F)ccc1Oc1cncnc1N1CC2(CCN(C[C@H]3CC[C@]4(CC3)CC(C)(C)C(=O)N4)CC2)C1)C(C)C [Example 21] | 9.8 nM | 39.8 nM | – | – | – | – | 13.1 nM |
| CC(C)N(C(=O)c1cc(F)ccc1Oc1cncnc1N1CC2(CCN(C[C@H]3CC[C@]4(CC3)CC(C)(C)C(=O)N4)CC2)C1)C(C)C [Example 22] | 16.6 nM | 24 nM | – | – | – | – | 11.3 nM |
| CC(C)N(C(=O)c1cc(F)ccc1Oc1cncnc1N1CC2(CCN(C[C@H]3CC[C@]4(CC3)CC(C)(C)C(=O)N4)CC2)C1)C1CCC1 [Example 25] | 31.2 nM | 64.3 nM | 86.3 nM | – | – | – | 6.9 nM |
| CC(C)N(C(=O)c1cc(F)ccc1Oc1nncnc1N1CC2(CCN(C[C@H]3CC[C@]4(CC3)CC(C)(C)C(=O)N4)CC2)C1)C(C)C [Example 27] | 16.3 nM | 32.1 nM | – | – | – | – | 13 nM |
| CC(C)N(C(=O)c1cc(F)ccc1Oc1nncnc1N1CC2(CCN(C[C@H]3CC[C@]4(CC3)CC(C)(C)C(=O)N4)CC2)C1)C1CC1 [Example 30] | 33 nM | 52 nM | 197 nM | – | – | – | 35.2 nM |
| CC(C)N(C(=O)c1cc(F)ccc1Oc1nncnc1N1CC2(CCN(C[C@H]3CC[C@]4(CC3)CC(C)(C)C(=O)N4)CC2)C1)C1CCC1 [Example 32] | 39.3 nM | 63.6 nM | 179 nM | – | – | – | 17.8 nM |
| CCN(C(=O)c1cc(F)ccc1Oc1nncnc1N1CC2(CCN(C[C@H]3CC[C@]4(CC3)CC(C(C)(C)O)C(=O)N4)CC2)C1)C(C)C (stereo partly drawn) [Example 58-1] | 2.9 nM | 42.4 nM | 88.9 nM | – | – | – | 17.2 nM |
| CC(C)N(C(=O)c1cc(F)ccc1Oc1nncnc1N1CC2(CCN(C[C@H]3CC[C@]4(CC3)CC(C(C)(C)O)C(=O)N4)CC2)C1)C(C)C (stereo partly drawn) [Example 59-1] | 2.5 nM | 34.7 nM | 55.9 nM | – | – | – | 15.3 nM |
| CCN(C(=O)c1cc(F)ccc1Oc1nncnc1N1CC2(CCN(C[C@H]3CC[C@]4(CC3)CC(=C(C)C)C(=O)N4)CC2)C1)C(C)C [Example 60] | 28.4 nM | 92.4 nM | 175 nM | – | – | – | 35 nM |
| CC(C)=C1C[C@]2(CC[C@@H](CN3CCC4(CC3)CN(c3ncnnc3Oc3ccc(F)cc3C(=O)N(C(C)C)C(C)C)C4)CC2)NC1=O [Example 61] | 25.5 nM | 72.1 nM | 108 nM | – | – | – | 23 nM |
